Columns and labels:
GGT = biological target: T1, GGT (Homo sapiens, UniProt P19440); experiment: Enzymatic reaction between gGlu-4^125I-FMA and GGT, HPLC with radiation detector; assay type: biochemical; details: 80 U/mL GGT, 37° C., 3.5 hours, radio-HPLC
T1 construct: purchased wako 307-50673
Method: The purified gGlu-4^125I-FMA was dissolved in DPBS(-) to prepare about 5 kBq/μL. The result of the radiation detector when 20 μL of DPBS(-) was added to 5 μL of this solution and the entire amount of 25 μL was injected into the analytical HPLC is shown in the upper left of FIG. 3. Here, the analysis conditions of HPLC are exactly the same as the conditions at the time of purification in FIG. 2.
For analysis of metabolites, 40 μL of a 100 U/mL GGT solution (final concentration: 80 U/mL) was added to 10 μL of the above gGlu-4^125I-FMA solution, and the mixture was stirred at 37° C. and 500 rpm for 3.5 hours using a shaker. The result of the radiation detector when a half amount 25 μL from this reaction liquid was injected for analysis is shown in the upper left of FIG. 3. The lower right is a result of extracting 254 nm with PDA when a cold preparation of 2-amino-5-iodobenzylalcohol obtained by producing azaquinone methide after gGlu-4^125I-FMA was metabolized by GGT, and reacting azaquinone methide with water that would be the main nucleophile in this enzymatic reaction experiment was analyzed under the same analysis conditions.

[1] = tested on: H226 tumor (low GGT activity); experiment: Intratumoral administration to subcutaneous tumor model mouse, SPECT/CT imaging (low GGT tumor); assay type: in vivo; details: about 150 kBq intratumoral, images 30 minutes, 2 hours, 5 hours
Method: (§1) On the basis of the results of Example 2, a probe was intratumorally administered to a subcutaneous tumor model mouse, and SPECT/CT imaging was performed.
(§2) A model mouse was prepared in which A549 cells with high GGT activity were transplanted subcutaneously on the left side of the body, and H226 cells with low GGT activity were transplanted subcutaneously on the right side of the body. Into subcutaneous tumors of A549 (high GGT activity, left side) and H226 (low GGT activity, right side), gGlu-4^125I-FMA of about 150 kBq in 30 μL PBS(-) was directly administered. SPECT/CT images were acquired 30 minutes, 2 hours, and 5 hours after administration.

[2] = tested on: A549 tumor (high GGT activity); experiment: Intratumoral administration to subcutaneous tumor model mouse, SPECT/CT imaging (high GGT tumor); assay type: in vivo; details: about 150 kBq intratumoral, images 30 minutes, 2 hours, 5 hours
Method: as §1, §2

[3] = tested on: SHIN3 (high GGT activity) cells; experiment: Intracellular uptake test in cells with high GGT activity, with or without GGT inhibitor GGsTop; assay type: cell-based
Method: (§3) Intracellular uptake of gGlu-4^125I-FMA was evaluated using cells with high or low GGT activity and a GGT inhibitor, GGsTop, by the procedure shown in FIG. 4.
(§4) First, SHIN3 (high GGT activity) and SKOV3 (low GGT activity) cells were seeded in 12 well culture plates and incubated for 1 day. Next, the medium of each well was changed to fresh medium containing gGlu-4^125I-FMA (and GGsTop), and the cells were incubated for 6 hours. Thereafter, the medium was removed and the plates were washed three times with PBS(-). Then, the cells were collected, radioactivity from the cells was measured with a Y-counter, and the number of cells was counted.
(§5) Since there was almost no radioactivity in the third wash fraction and the radioactivity from the cell fraction was much higher than that, it is considered that the radioactivity from the cell fraction is derived from the nuclide retained in the cell.

[4] = tested on: A549-luc-C8 cells with high GGT activity (peritoneal dissemination); experiment: Visualization of peritoneal metastasis by intraperitoneal administration, SPECT/CT and autoradiography; assay type: in vivo, mouse; details: for signals in the abdomen (SPECT/CT): 5 hours after administration
Method: Next, according to the procedure shown in the left figure of FIG. 7, peritoneal dissemination model mice were prepared, and gGlu-4^125I-FMA was intraperitoneally administered. First, A549-luc-C8 cells with high GGT activity were transplanted into the abdominal cavity of the mouse and bred for 1 week. Luciferin potassium was intraperitoneally administered, and tumor growth was confirmed by luminescence imaging using IVIS (right figure in FIG. 7). Next, gGlu-4^125I-FMA was intraperitoneally administered (to 3 MBq) to the peritoneal model mouse and a tumor-free mouse, and SPECT/CT imaging was performed by NanoSPECT/CT. […] They are shown as Maximum Intensity Projection (MIP) images.
In addition, the peritoneal dissemination model mouse in the left figure was dissected after 5 hours of imaging, and the intestines and mesentery were taken out and imaged by autoradiography (ARG) (FIG. 9). […] From this, it is considered that the signals scattered in the abdominal cavity in the SPECT/CT on the left of FIG. 8 correspond to the peritoneal dissemination.

[5] = tested on: SKOV3 (low GGT activity) cells; experiment: Intracellular uptake test in cells with low GGT activity; assay type: cell-based; details: SKOV3, 6 hours incubation, gamma counter
Method: as §3, §4, §5

T1 sequence (P19440 whole entry, species assumed): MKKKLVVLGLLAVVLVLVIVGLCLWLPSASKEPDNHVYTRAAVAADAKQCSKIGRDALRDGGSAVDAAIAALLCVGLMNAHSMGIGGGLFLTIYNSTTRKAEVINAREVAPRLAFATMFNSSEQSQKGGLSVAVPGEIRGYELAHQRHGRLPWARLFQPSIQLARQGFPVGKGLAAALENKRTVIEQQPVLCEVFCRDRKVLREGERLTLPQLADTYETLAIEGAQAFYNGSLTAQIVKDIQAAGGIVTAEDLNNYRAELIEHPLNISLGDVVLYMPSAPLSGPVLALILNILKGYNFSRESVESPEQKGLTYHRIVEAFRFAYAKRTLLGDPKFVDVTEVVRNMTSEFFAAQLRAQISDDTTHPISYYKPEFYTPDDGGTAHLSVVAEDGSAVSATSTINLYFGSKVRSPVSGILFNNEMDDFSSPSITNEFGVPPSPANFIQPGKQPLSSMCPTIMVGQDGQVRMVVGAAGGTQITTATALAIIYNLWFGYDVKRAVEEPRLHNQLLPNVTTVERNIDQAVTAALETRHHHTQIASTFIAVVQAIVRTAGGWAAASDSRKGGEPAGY

For N[C@@H](CCC(=O)Nc1ccc([125I])cc1CF)C(=O)O [gGlu-4^125I-FMA], the “metabolite formed on reaction with GGT” value (GGT) was “converted to 2-amino-5-iodobenzylalcohol”, the “radioactivity in tumor (SPECT/CT)” value [1] was “rapidly attenuated” and the “radioactivity in tumor (SPECT/CT)” value [2] was “clearly remains”. The “uptake rate without inhibitor compared with the case of adding an inhibitor” value ([3]; SHIN3, 6 hours incubation, GGsTop as inhibitor, gamma counter, standardized by number of cells) was “about 30 times”, the “retention of incorporated probe in the cell after wash operation” value ([3]; three washes with PBS(-)) was “remains in the cell at a certain ratio and withstands washout” and the “clearance of probe from abdominal cavity (SPECT/CT)” value ([4]; i.p., after 30 minutes) was “almost disappeared from the abdominal cavity”. The “signals in the bladder (SPECT/CT)” value ([4]; i.p., after 30 minutes) was “many signals gathered in the bladder”, the “uptake in intestines and mesentery by autoradiography (ARG)” value ([4]; peritoneal dissemination model mouse dissected after 5 hours of imaging) was “uptake of radionuclides was observed in agreement with minute peritoneal dissemination” and the “signals in the abdomen (SPECT/CT)” value ([4]; peritoneal dissemination model mouse, i.p.) was “only scattered signals remained in the abdomen”. For the same compound, the “signals in the abdomen (SPECT/CT)” value ([4]; tumor-free mouse, i.p.) was “not observed” and the uptake rate [5] was “suppressed to be low”.

Reference: patent US20250152758A1, “PROBE FOR NUCLEAR MEDICAL TESTING” (The University of Tokyo, priority 2022, published 2025)
